Data: ChEMBL document CHEMBL5625178, “The topoisomerase II β -kinase associated with HIV-1 is a potential target for pyridine-bischalcones' anti-HIV-1 activity” (Eur J Med Chem, 2023)
pIC50: −log10 of the molar value. The source made the active and inactive calls. The calls are words filed in the database; no cut-off is given here.

Columns and labels:
[1] = test system: Human immunodeficiency virus 1; test: Antiviral activity against HIV1 infected in human SUP-T1 cells assessed as inhibition of viral replication incubated for 5 hrs by sandwich ELISA method; type: functional, organism-based
[2] = Cytotoxicity against human SUP-T1 cells assessed as reduction in cell viability incubated for 16 hrs by MTT assay; type: toxicity, cell-based
[3] = (§1) Inhibition of HIV-1 topoisomerase II beta kinase phosphorylation in the presence of […][gamma 32P]-ATP incubated for 30 mins by liquid scintillation counter analysis; design: species or system Human immunodeficiency virus 1
[4] = test system: Human immunodeficiency virus 1; test: Antiviral activity against HIV1 93IN101 infected in human SUP-T1 cells assessed as suppression of proviral DNA synthesis at IC50 concentration incubated for 5 hrs by PCR analysis; type: functional, organism-based
SUP-T1 = test: Inhibition of Topoisomerase II beta serine phosphorylation in human SUP-T1 cells infected with HIV1 93IN101 by Western blot analysis; type: cell-based; conditions: dose 5-50 nM
[5] = test system: Human immunodeficiency virus 1; test: as §1; conditions: dose 0.25-600 pM

Row | SMILES | Activity [1] | CC50 at 16 h [2] | pIC50 [3] | Activity [4] | inhibition (SUP-T1) | inhibition [5]
1 | O=C1/C(=C/c2ccccn2)CCC/C1=C\c1ccccn1 | Dose-Dependent Effect | 0.92 µM | 9.26 |  |  | 
2 | C[n+]1ccc(/C=C2\CCC/C(=C\c3cc[n+](C)cc3)C2=O)cc1 | Dose-Dependent Effect | 2.02 µM | 9.82 | Active | Dose-Dependent Effect | 
3 | C[n+]1ccccc1/C=C1\CCC/C(=C\c2cccc[n+]2C)C1=O | Dose-Dependent Effect | 2.04 µM | 9.85 | Active | Dose-Dependent Effect | 
4 | O=C1/C(=C/c2ccncc2)CCC/C1=C\c1ccncc1 | Dose-Dependent Effect | 0.82 µM | 9.36 |  |  | Dose-Dependent Effect
5 | c1ccc(-c2cccnc2)cc1 |  | 1.5 µM |  |  |  | Dose-Dependent Effect
6 | Cc1cn([C@H]2C[C@H](N=[N+]=[N-])[C@@H](CO)O2)c(=O)[nH]c1=O | Dose-Dependent Effect |  |  |  |  | 
7 | C[n+]1cccc(/C=C2\CCC/C(=C\c3ccc[n+](C)c3)C2=O)c1 | Dose-Dependent Effect | 2.12 µM | 10.00 | Active | Dose-Dependent Effect | 
8 | O=C1/C(=C/c2cccnc2)CCC/C1=C\c1cccnc1 | Dose-Dependent Effect | 0.96 µM | 9.49 |  |  | 
